Columns and labels:
[1] = test system: Caco-2 monolayer; test: Caco-2 Permeability Assay; format: in vitro ADME, human
Method in brief: (§1)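 Bidirectional transport at 37 °C for 90 min, 10 μM donor concentration, with or without Pgp inhibitor, across 21-day Caco-2 monolayers with TEER >600 […] in HEPES-buffered HBSS, pH 7.4. LC-MS/MS of donor and receiver samples gives Papp, B→A/A→B efflux ratio and mass recovery.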

[2] = Stability in Simulated Gastric Fluid (SGF); format: in vitro ADME; parameters: key: % parent compound remaining relative to 0-minute sample
Method in brief: (§2)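 LC-MS/MS read-out of intact compound (2 μg/mL final) over 60 minutes at 37° C; gastric medium pH 1.2 with pepsin, intestinal medium pH 6.8 with pancreatin. Half-life from ln(% remaining) against time.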

[3] = Stability in Simulated Intestinal Fluid (SIF); format: in vitro ADME; parameters: key: % parent compound remaining relative to 0-minute sample
Method in brief: as §2

[4] = Caco-2 Permeability Assay; format: in vitro ADME, human; details: human
Method in brief: as §1

[5] = Plasma Stability; format: in vitro ADME, human
Method in brief: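 Parent compound quantified by LC-MS/MS after acetonitrile precipitation, reported as percent of control remaining (triplicate). Incubation: 1 hour, 37° C, fresh human plasma, compound at 1 μM.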

[6] = % remaining at 1 h, SGF with pepsin pH 1.2, 2 μg/mL, 37° C.
[7] = % remaining at 1 h, SIF with pancreatin pH 6.8, 2 μg/mL, 37° C.
[8] = % remaining at 1 h, human plasma, 1 μM, 37° C.
[9] = Caco-2, pH 7.4, Caco-2 monolayer
[10] = simulated gastric fluid, at 1 h
[11] = simulated intestinal fluid, at 1 h
[12] = % @ 1 h (remaining) in simulated gastric fluid
[13] = % @ 1 h (remaining) in simulated intestinal fluid
[14] = % @ 1 h (remaining) in human plasma
[15] = % remaining at 1 h in simulated gastric fluid
[16] = % remaining at 1 h in simulated intestinal fluid
[17] = % remaining at 1 h in human plasma
[18] = Caco-2, pH 7.4, donor 10 μM, 90 minutes, 37° C., direction not given

In the case of `CC(C)OCCn1c(=S)n(COC(=O)[C@H](C)N)c(=O)c2c1ccn2CO.O=C(O)C(F)(F)F` [Example 290, trifluoroacetic acid [5-(hydroxymethyl)-4-oxo-1-[2-(propan-2-yloxy)ethyl]-2-sulfanylidene-1H,2H,3H,4H,5H-pyrrolo[3,2-d]pyrimidin-3-yl]methyl (2S)-2-aminopropanoate], the “Caco-2 Papp (nm/s)” value [1] was “unstable”, the SGF ([2]; % remaining @ 1 h) was 98% @ 1 h and the SIF ([3]; % remaining @ 1 h) was 10% @ 1 h.

`CC(C)OCCn1c(=S)n(COCC[Si](C)(C)C)c(=O)c2[nH]ccc21` [Example 70, 1-[2-(Propan-2-yloxy)ethyl]-2-sulfanylidene-3-{[2-(trimethylsilyl)ethoxy]methyl}-1H,2H,3H,4H,5H-pyrrolo[3,2-d]pyrimidin-4-one] gave a Papp at 90 min, 10 µM ([4]; Caco-2, pH 7.4, no unit printed at the place (tables the 9th table and the 10th table have no head)) of 23.2 ×10⁻⁶ cm/s, an SGF [2, 6] of 96% and an SIF [3, 7] of 99%. For the same molecule, the “human Plasma stability” value [5, 8] was 99%.

`Cc1cccc(N(C)C(=O)OCn2c(=O)c3c(ccn3COC(=O)N(C)c3cccc(C)c3)n(CCOC(C)C)c2=S)c1` [Example 247] gave a Papp at 90 min, 10 µM [4, 9] of 3.99 ×10⁻⁶ cm/s, an SGF [2, 10] of 64% remaining and an SIF [3, 11] of 81% remaining. For the same molecule, the “human Plasma stability” value ([5]; human plasma, at 1 h) was 31% remaining.

With `CC(C)OCCn1c(SCOC(=O)N(C)Cc2ccccc2)nc(=O)c2[nH]ccc21.O=C(O)C(F)(F)F` [Example 173] the Papp at 90 min, 10 µM [4, 9] was 20.5 ×10⁻⁶ cm/s, the SGF [2, 12] was 95% @ 1 h and the SIF [3, 13] was 99% @ 1 h. The “human Plasma stability” value [5, 14] was 99% @ 1 h.

Work on `CCCC(=O)OCSc1nc(=O)c2c(ccn2COC(=O)CCC)n1CCOC(C)C` [Example 155] yielded a Papp at 90 min, 10 µM [4, 9] of 2.79 ×10⁻⁶ cm/s, an SGF [2, 12] of 73% @ 1 h and an SIF [3, 13] of 0% @ 1 h. The “human Plasma stability” value [5, 14] was 1% @ 1 h.

Work on `CC(C)OCCn1c(SCOC(=O)N(C)C(C)(C)C)nc(=O)c2c1ccn2COC(=O)N(C)C(C)(C)C.O=C(O)C(F)(F)F` [Example 168] yielded a Papp at 90 min, 10 µM [4, 9] of 28.1 ×10⁻⁶ cm/s, an SGF [2, 12] of 100% @ 1 h and an SIF [3, 13] of 94% @ 1 h. For the same molecule, the “human Plasma stability” value [5, 14] was 88% @ 1 h.

In the case of `CC(C)OCCn1c(=S)[nH]c(=O)c2c1ccn2COC(=O)CCNC(=O)[C@H](CO)NC(=O)OC(C)(C)C.O=C(O)C(F)(F)F` [Example 42], the Papp at 90 min, 10 µM [4, 9] was 0.507 ×10⁻⁶ cm/s, the SGF [2, 15] was 86% remaining and the SIF [3, 16] was 75% remaining. The “human Plasma stability” value [5, 17] was 51% remaining.

In the case of `CC(C)OCCn1c(=S)[nH]c(=O)c2c1ccn2COC(=O)CCCCNC(=O)CN(C)C(=O)CNC(=O)OC(C)(C)C.O=C(O)C(F)(F)F` [Example 57], the Papp at 90 min, 10 µM [4, 9] was 0.28 ×10⁻⁶ cm/s, the SGF [2, 15] was 81% remaining and the SIF [3, 16] was 96% remaining. The “human Plasma stability” value [5, 17] was 0% remaining.

`CC(C)OCCn1c(=S)[nH]c(=O)c2c1ccn2COCC[Si](C)(C)C` [Example 72, 1-[2-(propan-2-yloxy)ethyl]-2-sulfanylidene-5-{[2-(trimethylsilyl)ethoxy]methyl}-1H,2H,3H,4H,5H-pyrrolo[3,2-d]pyrimidin-4-one] showed a Papp at 90 min, 10 µM [4, 18] of 26.4 ×10⁻⁶ cm/s, an SGF [2, 6] of 97% and an SIF [3, 7] of 98%. The “human Plasma stability” value [5, 8] was 78%.

For `CCCCN(C)C(=O)OCSc1nc(=O)c2[nH]ccc2n1CCOC(C)C.O=C(O)C(F)(F)F` [Example 160], the Papp at 90 min, 10 µM [4, 9] was 15.8 ×10⁻⁶ cm/s, the SGF [2, 12] was 92% @ 1 h and the SIF [3, 13] was 95% @ 1 h. For the same molecule, the “human Plasma stability” value [5, 14] was 99% @ 1 h.

In the case of `CC(C)C[C@@H](NC(=O)OC(C)(C)C)C(=O)OCCCCC(=O)OCn1ccc2c1c(=O)[nH]c(=S)n2CCOC(C)C` [Example 347, 5-oxo-5-({4-oxo-1-[2-(propan-2-yloxy)ethyl]-2-sulfanylidene-1H,2H,3H,4H,5H-pyrrolo[3,2-d]pyrimidin-5-yl}methoxy)pentyl (2R)-2-{[(tert-butoxy)carbonyl]amino}-4-methylpentanoate], the Papp at 90 min, 10 µM ([4]; Caco-2, pH 7.4) was 1.06 ×10⁻⁶ cm/s, the SGF ([2]; % remaining @ 1 h) was 98% remaining and the SIF ([3]; % remaining @ 1 h) was 4% remaining. For the same molecule, the “human Plasma stability” value ([5]; % remaining @ 1 h) was 16% remaining.

`COC(=O)[C@H](CCCCNC(=O)OC(C)(C)C)NC(=O)OCn1ccc2c1c(=O)[nH]c(=S)n2CCOC(C)C` [Example 102, Methyl (2S)-6-{[(tert-butoxy)carbonyl]amino}-2-{[({4-oxo-1-[2-(propan-2-yloxy)ethyl]-2-sulfanylidene-1H,2H,3H,4H,5H-pyrrolo[3,2-d]pyrimidin-5-yl}methoxy)carbonyl]amino}hexanoate] showed a Papp at 90 min, 10 µM [4, 18] of 1.46 ×10⁻⁶ cm/s, an SGF ([2]; % remaining at 1 h, SGF with pepsin pH 1.2, 2 μg/mL, 37° C., listed as EXAMPLE 102) of 75% and an SIF ([3]; % remaining at 1 h, SIF with pancreatin pH 6.8, 2 μg/mL, 37° C., listed as EXAMPLE 102) of 96%. For the same molecule, the “human Plasma stability” value ([5]; % remaining at 1 h, human plasma, 1 μM, 37° C., listed as EXAMPLE 102) was 97%.

`Cc1cccc(N(C)C(=O)OCSc2nc(=O)c3c(ccn3COC(=O)N(C)c3cccc(C)c3)n2CCOC(C)C)c1` [Example 246] showed a Papp at 90 min, 10 µM [4, 9] of 21.7 ×10⁻⁶ cm/s, an SGF [2, 10] of 98% remaining and an SIF [3, 11] of 99% remaining. For the same molecule, the “human Plasma stability” value ([5]; human plasma, at 1 h) was 99% remaining.

Molecule `CC(C)OCCn1c(=S)[nH]c(=O)c2c1ccn2COC(=O)CCCCNC(=O)[C@H](Cc1ccccc1)NC(=O)OCC1c2ccccc2-c2ccccc21.O=C(O)C(F)(F)F` [Example 22] has a Papp at 90 min, 10 µM [4, 9] of 0.647 ×10⁻⁶ cm/s, an SGF [2, 15] of 87% remaining and an SIF [3, 16] of 90% remaining. The “human Plasma stability” value [5, 17] was 74% remaining.

`CC(C)OCCn1c(=S)[nH]c(=O)c2c1ccn2C(C)OC(=O)c1ccccc1` (stereo not drawn) [Example 115, 1-{4-oxo-1-[2-(propan-2-yloxy)ethyl]-2-sulfanylidene-1H,2H,3H,4H,5H-pyrrolo[3,2-d]pyrimidin-5-yl}ethyl benzoate] showed a Papp at 90 min, 10 µM [4, 18] of 8.05 ×10⁻⁶ cm/s, an SGF [2, 6] of 63% and an SIF [3, 7] of 67%. For the same molecule, the “human Plasma stability” value [5, 8] was 59%.

Molecule `CC(C)OCCn1c(=S)n(COC(=O)[C@H](N)C(C)C)c(=O)c2c1ccn2COC(=O)[C@H](N)C(C)C.O=C(O)C(F)(F)F.O=C(O)C(F)(F)F` [Example 301, bis(trifluoroacetic acid) [3-({[(2R)-2-amino-3-methylbutanoyl]oxy}methyl)-4-oxo-1-[2-(propan-2-yloxy)ethyl]-2-sulfanylidene-1H,2H,3H,4H,5H-pyrrolo [3,2-d]pyrimidin-5-yl]methyl (2R)-2-amino-3-methylbutanoate] has a Papp at 90 min, 10 µM ([4]; Caco-2, pH 7.4) of 1.72 ×10⁻⁶ cm/s, an SGF ([2]; % remaining @ 1 h) of 97% @ 1 h and an SIF ([3]; % remaining @ 1 h) of 10% @ 1 h. For the same molecule, the “human Plasma stability” value ([5]; % remaining @ 1 h) was 5% @ 1 h.

For `CC(C)OCCn1c(SCOC(=O)N(C)c2cccc(F)c2)nc(=O)c2[nH]ccc21` [Example 210, ({4-oxo-1-[2-(propan-2-yloxy)ethyl]-1H,4H,5H-pyrrolo[3,2-d]pyrimidin-2-yl}sulfanyl)methyl N-(3-fluorophenyl)-N-methylcarbamate], the Papp at 90 min, 10 µM [4, 18] was 18.3 ×10⁻⁶ cm/s, the SGF [2, 6] was 100% remaining and the SIF [3, 7] was 97% remaining. For the same molecule, the “human Plasma stability” value [5, 8] was 97% remaining.

`CC(C)OCCn1c(=S)[nH]c(=O)c2c1ccn2COC(=O)CCN` [Example 8, Trifluoroacetic acid {4-oxo-1-[2-(propan-2-yloxy)ethyl]-2-sulfanylidene-1H,2H,3H,4H,5H-pyrrolo[3,2-d]pyrimidin-5-yl}methyl 3-aminopropanoate] showed a Papp at 90 min, 10 µM [4, 18] of 0.46 ×10⁻⁶ cm/s, an SGF [2, 6] of 97% and an SIF [3, 7] of 68%. The “human Plasma stability” value [5, 8] was 45%.

In the case of `CC(C)OCCn1c(SC(C)OC(=O)N(C)c2ncccc2COC(=O)CN(C)C(=O)OC(C)(C)C)nc(=O)c2[nH]ccc21` (stereo not drawn) [Example 212, (tert-Butoxycarbonyl-methyl-amino)-acetic acid 2-({1-[1-(2-isopropoxy-ethyl)-4-oxo-4,5-dihydro-1H-pyrrolo[3,2-d]pyrimidin-2-ylsulfanyl]-ethoxycarbonyl}-methyl-amino)-pyridin-3-ylmethyl ester], the Papp at 90 min, 10 µM [4, 18] was 0.87 ×10⁻⁶ cm/s, the SGF [2, 6] was 89% and the SIF [3, 7] was 97%. For the same molecule, the “human Plasma stability” value [5, 8] was 97%.

From patent publication US20240067651A1 (Biohaven Therapeutics Ltd., priority 2019, published 2024)
